{
  "source": "paper PMC4113456",
  "about": "“Atypical Signaling and Functional Desensitization Response of MAS Receptor to Peptide Ligands” (PLoS ONE, 2014)",
  "key": {"[1]": {"biological_target": "T1, MAS F112A mutant (Homo sapiens, UniProt P04201, F112A)", "T1 construct": "expressed in transfected cells", "T1 sequence (P04201 1-325 F112A)": "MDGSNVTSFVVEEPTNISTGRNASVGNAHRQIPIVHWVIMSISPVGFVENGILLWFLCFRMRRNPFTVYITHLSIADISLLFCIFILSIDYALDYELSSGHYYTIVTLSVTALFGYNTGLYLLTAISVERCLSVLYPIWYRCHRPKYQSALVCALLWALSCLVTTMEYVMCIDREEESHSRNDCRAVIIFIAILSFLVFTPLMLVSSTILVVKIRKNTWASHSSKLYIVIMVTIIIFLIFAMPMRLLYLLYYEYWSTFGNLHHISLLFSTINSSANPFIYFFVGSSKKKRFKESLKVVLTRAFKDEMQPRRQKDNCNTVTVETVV", "experiment": "Calcium assay, F112A MAS mutant stable cell line", "type": "cell-based", "protocol": "(§1) The assay was performed using FLIPR Calcium 5 assay kit (Molecular Devices, Sunnyvale, CA). For calcium measurements, cells at a density of 125,000 cells/well in 100 µl medium were seeded onto a 96-well clear bottom black cell culture plate that was pre-coated with poly-L-lysine. In the calcium assays the cell density of 125,000 cells/well was consistently maintained to minimize variability between independent experiments. The cells were seeded in induction media to induce MAS expression or in complete media for negative controls. The plate was maintained in a cell culture incubator for 26–28 h. The cells were then serum starved for 2 h by replacing the medium with 100 µl of serum free DMEM. In the case of pre-treatment with pan-inhibitor of G protein signaling, BIM-46187, the cells were initially serum starved for 1 h by replacing the medium with 50 µl of serum free DMEM. After 1 h, 50 µl of BIM-46187 was added to the cells to a final concentration of 25 µM and treated for another 1 h. Following serum starvation, 100 µl of calcium sensitive dye along with 2x (2.5 mM final concentration) probenecid (Life Technologies, Grand Island, NY) was added to the cells. During this step, AR-inverse agonist or BIM-46187 was also added at desired concentrations to the calcium dye preparation in case of experiments where cells were pre-treated with these inhibitors. The cells were maintained for one hour in the cell culture incubator. […] The instrument was programmed in FLEX mode to add ligands (50 µl at 5x concentration) to the cells and to monitor the fluorescence before and after adding the ligands. […]\n(§2) The kinetic parameter t1/2 (time taken to reach half of the maximum response) was determined using SoftMax Pro software supplied with the FlexStation 3 instrument (Molecular Devices, Sunnyvale, CA).\n(§3) For re-stimulation assays, the data is expressed as the percentage of maximum agonist stimulation to allow for ready comparison between individual experiments. […]"}, "[2]": {"biological_target": "T2, MAS I191A mutant (Homo sapiens, UniProt P04201, I191A)", "T2 construct": "expressed in transfected cells", "T2 sequence (P04201 1-325 I191A)": "T1 sequence (P04201 1-325 F112A) with A112F, I191A", "experiment": "Calcium assay, I191A MAS mutant stable cell line", "type": "cell-based", "protocol": "as §1, §2, §3"}, "[3]": {"biological_target": "T3, MAS M244A mutant (Homo sapiens, UniProt P04201, M244A)", "T3 construct": "expressed in transfected cells", "T3 sequence (P04201 1-325 M244A)": "T1 sequence (P04201 1-325 F112A) with A112F, M244A", "experiment": "Calcium assay, M244A MAS mutant stable cell line", "type": "cell-based", "protocol": "as §1, §2, §3"}, "[4]": {"biological_target": "T4, MAS (Homo sapiens, UniProt P04201)", "T4 construct": "expressed in transfected cells", "T4 sequence (P04201 1-325)": "T1 sequence (P04201 1-325 F112A) with A112F", "experiment": "Intracellular cAMP assay, induced MAS cells", "type": "cell-based", "conditions": "data not shown", "procedure": "Measurement of intracellular cAMP. The intracellular cAMP levels were measured using CatchPoint™ cAMP Fluorescent assay kit from Molecular devices (Molecular Devices, Sunnyvale, CA). For the cAMP assay, the cells were plated at a density of 1.25 million cells/well in a six-well plate. The cells were maintained in a cell culture incubator and induced the following day with doxycycline. The cells were serum starved for 2h following the induction for 26-28h. At this point the serum free media was replaced with 1ml of 3-Isobutyl-1-methylxanthine (Sigma-Aldrich, St. Louis, MO) at 1mM concentration for 15min at 37°C. Following this, 250µl of ligands were added at 5x concentration to the wells and incubated for another 15min at 37°C. The plates were then immediately transferred to ice and the cells were lysed with 150µl of lysis buffer provided with kit. The cAMP levels in the lysed samples were measured according to the protocol provided by the supplier."}, "[5]": {"experiment": "Solubility of ligand stock in assay buffer", "type": "physicochemical", "conditions": "5x ligand stock in D-PBS, at greater than 50 µM"}, "[6]": {"biological_target": "T4, MAS", "set-up": "method as in ref [9] (a number printed in a supplementary file, which may have a reference list of its own: not looked up in the article's list)", "conditions": "ref [9], read-out: EC50 (IP1 assay); cited from earlier work"}, "[7]": {"biological_target": "T4, MAS", "set-up": "method as in ref [9] (a number printed in a supplementary file, which may have a reference list of its own: not looked up in the article's list)", "conditions": "ref [9], read-out: EC50 (cAMP assay); cited from earlier work"}, "[8]": {"system": "MAS", "set-up": "method as in ref [9] (a number printed in a supplementary file, which may have a reference list of its own: not looked up in the article's list)", "conditions": "Rat MAS; ref [9]; read-out: EC50 (cAMP assay); cited from earlier work"}},
  "note": "Numbering of substitutions follows the chain as printed. Where two headings read alike, the source gives them in different places.",
  "data": [
    {"smiles": "COc1cc([N+](=O)[O-])ccc1S(=O)(=O)N1CC(CN2CCN(c3ccccn3)CC2)C(c2cccc(F)c2)C1", "note": "(centres unmarked) [AR-agonist]", "values": [
      {"measurement": "EC50, Calcium assay", "setting": "[1]", "value": "cbd"},
      {"measurement": "t1/2, Calcium assay", "setting": "[1]", "value": "cbd"},
      {"measurement": "EC50", "setting": "[2]", "value": "17.6 ± 3.8", "unit": "µM"},
      {"measurement": "t1/2, Calcium assay", "setting": "[2]", "value": "1.14 ± 0.0883", "unit": "min"},
      {"measurement": "EC50, Calcium assay", "setting": "[3]", "value": "cbd"},
      {"measurement": "t1/2, Calcium assay", "setting": "[3]", "value": "cbd"},
      {"measurement": "Effect on cAMP levels", "setting": "[4]", "value": "decreased cAMP levels"},
      {"measurement": "Solubility", "setting": "[5]", "value": "solubility issues"},
      {"measurement": "EC50", "setting": "[6]", "value": 0.35, "unit": "µM"},
      {"measurement": "EC50", "setting": "[7]", "value": 0.72, "unit": "µM"},
      {"measurement": "EC50", "setting": "[8]", "value": 1.71, "unit": "µM"}
    ]}
  ]
}
